pIC50: −log10 of the molar value.
Columns and labels:
MDA-MB-468 = assay: Growth inhibition of human MDA-MB-468 cells after 5 days by SRB assay; assay type: functional
MCF7 = assay: Growth inhibition of human MCF7 cells after 5 days by SRB assay; assay type: functional
HCC1954 = assay: Growth inhibition of human HCC1954 cells after 5 days by SRB assay; assay type: functional
MDA-MB-231 = assay: Growth inhibition of human MDA-MB-231 cells after 5 days by SRB assay; assay type: functional
[1] = Growth inhibition of human HMEC cells after 5 days by SRB assay; assay type: cell-based; settings: HMEC cells
Cytochrome P450 1A2 = target: T1, Cytochrome P450 1A2 (Homo sapiens, UniProt P05177); assay: Inhibition of CYP1A2 (unknown origin) by fluorescence assay; assay type: ADME
T1 sequence (P05177 whole entry): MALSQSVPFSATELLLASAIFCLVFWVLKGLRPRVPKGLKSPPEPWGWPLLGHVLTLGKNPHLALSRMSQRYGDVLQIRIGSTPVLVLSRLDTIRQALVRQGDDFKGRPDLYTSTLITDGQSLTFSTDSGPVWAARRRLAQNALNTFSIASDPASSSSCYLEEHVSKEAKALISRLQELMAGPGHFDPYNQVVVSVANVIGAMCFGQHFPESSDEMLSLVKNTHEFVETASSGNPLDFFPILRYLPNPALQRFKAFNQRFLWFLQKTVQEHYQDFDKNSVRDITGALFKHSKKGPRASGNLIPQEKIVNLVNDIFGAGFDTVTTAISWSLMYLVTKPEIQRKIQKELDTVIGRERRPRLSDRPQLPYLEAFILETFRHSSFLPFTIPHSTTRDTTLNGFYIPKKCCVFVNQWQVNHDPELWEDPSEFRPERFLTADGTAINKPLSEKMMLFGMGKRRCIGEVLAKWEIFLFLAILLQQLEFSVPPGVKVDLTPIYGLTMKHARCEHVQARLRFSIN

Cytochrome P450 2D6 = Cytochrome P450 2D6 (Homo sapiens, UniProt P10635); assay: Inhibition of CYP2D6 (unknown origin) by fluorescence assay; assay type: ADME
Chain of Cytochrome P450 2D6 (P10635 whole entry): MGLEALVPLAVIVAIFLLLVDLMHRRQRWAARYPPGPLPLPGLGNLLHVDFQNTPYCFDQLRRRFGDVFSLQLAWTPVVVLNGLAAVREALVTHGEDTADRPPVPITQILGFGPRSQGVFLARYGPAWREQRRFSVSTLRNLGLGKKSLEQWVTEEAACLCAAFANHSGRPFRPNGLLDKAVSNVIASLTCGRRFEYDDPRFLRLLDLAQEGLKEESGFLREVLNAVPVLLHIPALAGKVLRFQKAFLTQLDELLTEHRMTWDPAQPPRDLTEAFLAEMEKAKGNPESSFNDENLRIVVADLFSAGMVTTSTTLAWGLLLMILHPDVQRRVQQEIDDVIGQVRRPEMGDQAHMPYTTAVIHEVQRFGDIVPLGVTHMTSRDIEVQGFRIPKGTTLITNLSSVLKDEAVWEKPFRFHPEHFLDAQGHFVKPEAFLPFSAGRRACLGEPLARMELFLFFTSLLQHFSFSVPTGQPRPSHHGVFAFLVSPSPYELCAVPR

Cytochrome P450 2C9 = Cytochrome P450 2C9 (Homo sapiens, UniProt P11712); assay: Inhibition of CYP2C9 (unknown origin) by fluorescence assay
Chain of Cytochrome P450 2C9 (P11712 whole entry): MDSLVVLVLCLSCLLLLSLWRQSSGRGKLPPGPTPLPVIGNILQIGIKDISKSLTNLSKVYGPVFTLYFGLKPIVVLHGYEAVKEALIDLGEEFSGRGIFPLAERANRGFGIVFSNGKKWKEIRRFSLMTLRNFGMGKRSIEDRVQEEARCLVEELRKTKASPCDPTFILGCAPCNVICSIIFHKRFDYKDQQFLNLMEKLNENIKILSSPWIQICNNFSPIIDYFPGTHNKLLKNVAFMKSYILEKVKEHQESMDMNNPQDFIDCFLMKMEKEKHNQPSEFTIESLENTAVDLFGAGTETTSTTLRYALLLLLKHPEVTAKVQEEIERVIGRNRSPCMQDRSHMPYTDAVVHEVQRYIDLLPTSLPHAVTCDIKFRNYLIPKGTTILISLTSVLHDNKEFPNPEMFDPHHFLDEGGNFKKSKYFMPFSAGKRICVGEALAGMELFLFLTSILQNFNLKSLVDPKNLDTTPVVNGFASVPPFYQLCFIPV

Cytochrome P450 2C19 = Cytochrome P450 2C19 (Homo sapiens, UniProt P33261); assay: Inhibition of CYP2C19 (unknown origin) by fluorescence assay
Chain of Cytochrome P450 2C19 (P33261 whole entry): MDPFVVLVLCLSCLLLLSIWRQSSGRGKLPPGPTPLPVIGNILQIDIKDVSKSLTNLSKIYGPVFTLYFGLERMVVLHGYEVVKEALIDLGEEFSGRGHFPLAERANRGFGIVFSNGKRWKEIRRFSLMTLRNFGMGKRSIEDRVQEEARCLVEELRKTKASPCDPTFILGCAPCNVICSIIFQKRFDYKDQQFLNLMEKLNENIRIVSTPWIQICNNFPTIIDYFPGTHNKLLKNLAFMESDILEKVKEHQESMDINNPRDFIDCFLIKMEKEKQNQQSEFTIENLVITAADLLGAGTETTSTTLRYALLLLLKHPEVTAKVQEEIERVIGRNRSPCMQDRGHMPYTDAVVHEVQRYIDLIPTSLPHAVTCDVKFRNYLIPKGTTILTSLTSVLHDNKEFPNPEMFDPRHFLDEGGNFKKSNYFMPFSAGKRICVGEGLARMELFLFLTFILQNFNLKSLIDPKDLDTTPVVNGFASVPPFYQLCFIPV

Cytochrome P450 3A4 [2] = target: T2, Cytochrome P450 3A4 (Homo sapiens, UniProt P08684); assay: Inhibition of CYP3A4 (unknown origin) using DBF as substrate by fluorescence assay
T2 sequence (P08684 whole entry): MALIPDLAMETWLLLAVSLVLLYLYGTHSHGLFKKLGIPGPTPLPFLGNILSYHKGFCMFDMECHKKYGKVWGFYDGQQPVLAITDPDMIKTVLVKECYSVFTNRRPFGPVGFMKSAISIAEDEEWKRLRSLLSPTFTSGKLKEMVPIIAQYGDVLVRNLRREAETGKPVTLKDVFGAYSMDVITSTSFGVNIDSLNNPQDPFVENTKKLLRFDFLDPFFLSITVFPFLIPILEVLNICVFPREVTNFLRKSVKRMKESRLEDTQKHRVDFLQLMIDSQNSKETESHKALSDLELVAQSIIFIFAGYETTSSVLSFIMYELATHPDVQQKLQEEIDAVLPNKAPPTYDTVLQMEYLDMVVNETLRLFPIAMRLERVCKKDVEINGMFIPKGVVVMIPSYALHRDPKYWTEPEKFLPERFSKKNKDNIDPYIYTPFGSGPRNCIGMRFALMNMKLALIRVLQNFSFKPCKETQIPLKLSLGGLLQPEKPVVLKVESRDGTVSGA

Cytochrome P450 3A4 [3] = target: T2, Cytochrome P450 3A4; assay: Inhibition of CYP3A4 (unknown origin) using BFC as substrate by fluorescence assay
[4] = Half life in mouse liver microsomes
[5] = Half life in rat liver microsomes
[6] = Half life in dog liver microsomes
[7] = Half life in human liver microsomes
[8] = Cmax in athymic CD1 nude mouse at 25 mg/kg, po by LC/MS/MS analysis; assay type: ADME, organism-based; design: dose 25 mg/kg, route oral; settings: in vivo
[9] = AUC in athymic CD1 nude mouse at 25 mg/kg, po by LC/MS/MS analysis; assay type: ADME, organism-based; design: dose 25 mg/kg, route oral; settings: plasma
Rattus norvegicus = assay: Clearance in Sprague-Dawley rat at 1 mg/kg, iv; assay type: ADME, organism-based; design: dose 1 mg/kg, route intravenous; settings: in vivo
[10] = Half life in Sprague-Dawley rat at 1 mg/kg, iv; assay type: ADME, organism-based; design: dose 1 mg/kg, route intravenous; settings: in vivo
[11] = AUC(infinity) in Sprague-Dawley rat at 1 mg/kg, iv; assay type: ADME, organism-based; design: time infinity, dose 1 mg/kg, route intravenous; settings: plasma
[12] = AUC(infinity) in Sprague-Dawley rat at 5 mg/kg, po; assay type: ADME, organism-based; design: dose 5 mg/kg, route oral, time infinity; settings: plasma
[13] = Oral bioavailability in Sprague-Dawley rat at 5 mg/kg; assay type: ADME, organism-based; settings: in vivo
Canis familiaris = assay: Clearance in beagle dog at 1 mg/kg, iv; assay type: ADME, organism-based, Canis lupus familiaris; design: dose 1 mg/kg, route intravenous; settings: in vivo
[14] = Half life in beagle dog at 1 mg/kg, iv; assay type: ADME, organism-based, Canis lupus familiaris; design: dose 1 mg/kg, route intravenous; settings: in vivo
[15] = AUC(infinity) in beagle dog at 1 mg/kg, iv; assay type: ADME, organism-based, Canis lupus familiaris; design: time infinity, dose 1 mg/kg, route intravenous; settings: plasma
[16] = AUC(infinity) in beagle dog at 5 mg/kg, po; assay type: ADME, organism-based, Canis lupus familiaris; design: time infinity, dose 5 mg/kg, route oral; settings: plasma
[17] = Oral bioavailability in beagle dog at 5 mg/kg; assay type: ADME, organism-based, Canis lupus familiaris; settings: in vivo
[18] = target: T3, Serine/threonine-protein kinase PLK4 (Homo sapiens, UniProt O00444); assay: Inhibition of PLK4 (unknown origin) by ELISA
T3 sequence (O00444 whole entry): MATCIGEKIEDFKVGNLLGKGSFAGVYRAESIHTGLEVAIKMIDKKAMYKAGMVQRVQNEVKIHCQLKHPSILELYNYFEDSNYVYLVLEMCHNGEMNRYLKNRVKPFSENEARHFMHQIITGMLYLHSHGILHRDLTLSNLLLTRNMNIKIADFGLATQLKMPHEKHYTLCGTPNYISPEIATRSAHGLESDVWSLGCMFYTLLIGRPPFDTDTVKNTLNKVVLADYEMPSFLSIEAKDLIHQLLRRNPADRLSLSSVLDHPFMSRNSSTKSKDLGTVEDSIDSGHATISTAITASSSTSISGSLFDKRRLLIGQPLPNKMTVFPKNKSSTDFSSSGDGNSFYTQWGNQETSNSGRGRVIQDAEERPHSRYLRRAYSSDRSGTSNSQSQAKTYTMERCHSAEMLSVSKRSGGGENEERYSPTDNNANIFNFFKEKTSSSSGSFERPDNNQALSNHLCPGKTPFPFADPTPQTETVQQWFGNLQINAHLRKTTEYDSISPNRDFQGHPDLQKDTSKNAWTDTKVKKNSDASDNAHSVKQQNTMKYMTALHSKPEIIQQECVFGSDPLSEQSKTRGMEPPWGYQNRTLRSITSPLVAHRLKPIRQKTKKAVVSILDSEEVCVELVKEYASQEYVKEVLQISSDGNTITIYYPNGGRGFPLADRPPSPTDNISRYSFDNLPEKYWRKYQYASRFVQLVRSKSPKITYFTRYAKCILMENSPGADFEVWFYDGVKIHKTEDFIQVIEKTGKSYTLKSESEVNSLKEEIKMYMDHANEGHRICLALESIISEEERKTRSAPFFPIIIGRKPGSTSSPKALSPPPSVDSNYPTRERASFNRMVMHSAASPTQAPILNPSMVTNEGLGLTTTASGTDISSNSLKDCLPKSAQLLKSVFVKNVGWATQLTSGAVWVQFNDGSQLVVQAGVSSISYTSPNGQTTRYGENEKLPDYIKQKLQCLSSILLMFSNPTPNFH

[19] = Homo sapiens, MDA-MB-468, 120 h
[20] = Homo sapiens, MDA-MB-231, 120 h

| Compound | GI50 (MDA-MB-468; [19]) [nM] | GI50 (MCF7; Homo sapiens, MCF7, 120 h) [nM] | GI50 (HCC1954; Homo sapiens, HCC1954, 120 h) [nM] | GI50 (MDA-MB-231; [20]) [nM] | inhibition (INH) (Cytochrome P450 1A2) | inhibition (INH) (Cytochrome P450 2D6) | pIC50 (Cytochrome P450 2C9) | pIC50 (Cytochrome P450 2C19) | pIC50 (Cytochrome P450 3A4 [2]) | pIC50 (Cytochrome P450 3A4 [3]) | half-life ([4]; liver microsomes) [min] | half-life ([5]; liver microsomes) [min] | half-life ([6]; liver microsomes) [min] | half-life ([7]; liver microsomes) [min] | Cmax [8] [ng/mL] | AUC [9] [ng·h/mL] | clearance (Rattus norvegicus) [mL/min/kg] | half-life [10] [min] | AUC(0-inf) [11] [ng·h/mL] | GI50 at 120 h [1] [nM] | also measured |
| --- | --- | --- | --- | --- | --- | --- | --- | --- | --- | --- | --- | --- | --- | --- | --- | --- | --- | --- | --- | --- | --- |
| COc1ccc2c(c1)[C@]1(C[C@H]1c1ccc3c(/C=C/c4ccc(CN5CCOCC5)cc4)n[nH]c3c1)C(=O)N2 | – | – | – | – | Not Active | Not Active | 6.10 | 5.92 | 5.19 | 5.62 | 12 | 8.3 | 9.4 | 41 | 3500 | 9500 | 66.7 | 66 | 250 | > 50000 | GI50 (MDA-MB-468): < 0.1 nM; GI50 (MCF7): 0.1 nM; GI50 (HCC1954): 250 nM; GI50 (MDA-MB-231): < 1 nM; AUC(0-inf) [12]: 272 ng·h/mL; bioavailability [13]: 22%; clearance (Canis familiaris): 41.7 mL/min/kg; half-life [14]: 52.2 min; AUC(0-inf) [15]: 402 ng·h/mL; AUC(0-inf) [16]: 1420 ng·h/mL; bioavailability [17]: 71% |
| Cc1ccc2c(c1)[C@]1(C[C@H]1c1ccc3c(/C=C/c4ccc(CN5CCOCC5)cc4)n[nH]c3c1)C(=O)N2 | 13 | < 10 | < 10 | 22000 | Not Active | Not Active | 6.00 | 5.92 | – | – | 13 | 9 | 9.5 | 56 | 2100 | 5500 | 58.3 | 96 | 285 | 9300 | AUC(0-inf) [12]: 410 ng·h/mL; bioavailability [13]: 28%; clearance (Canis familiaris): 23.3 mL/min/kg; half-life [14]: 420 min; AUC(0-inf) [15]: 795 ng·h/mL; AUC(0-inf) [16]: 1140 ng·h/mL; bioavailability [17]: 29% |
| CC(C)N1CCC(Oc2ccc(/C=C/c3n[nH]c4cc([C@@H]5C[C@@]56C(=O)Nc5ccccc56)ccc34)cc2)CC1 | 5 | 67 | 7 | 1600 | Not Active | Not Active | 5.62 | 5.72 | 5.80 | < 6.00 | 30 | > 60 | > 60 | > 60 | 510 | 1400 | – | – | – | 4100 | pIC50 [18]: 8.82 |

These reach a higher pIC50 (Cytochrome P450 2C9). Values come first.

| GI50 (MDA-MB-468; [19]) [nM] | GI50 (MCF7; Homo sapiens, MCF7, 120 h) [nM] | GI50 (HCC1954; Homo sapiens, HCC1954, 120 h) [nM] | GI50 (MDA-MB-231; [20]) [nM] | inhibition (INH) (Cytochrome P450 1A2) | inhibition (INH) (Cytochrome P450 2D6) | pIC50 (Cytochrome P450 2C9) | pIC50 (Cytochrome P450 2C19) | pIC50 (Cytochrome P450 3A4 [2]) | pIC50 (Cytochrome P450 3A4 [3]) | half-life ([4]; liver microsomes) [min] | half-life ([5]; liver microsomes) [min] | half-life ([6]; liver microsomes) [min] | half-life ([7]; liver microsomes) [min] | Cmax [8] [ng/mL] | AUC [9] [ng·h/mL] | clearance (Rattus norvegicus) [mL/min/kg] | half-life [10] [min] | AUC(0-inf) [11] [ng·h/mL] | Compound | GI50 at 120 h [1] [nM] | also measured |
| --- | --- | --- | --- | --- | --- | --- | --- | --- | --- | --- | --- | --- | --- | --- | --- | --- | --- | --- | --- | --- | --- |
| 4.2 | 800 | < 1 | 5000 | Not Active | Not Active | 6.15 | 6.10 | 5.57 | 5.20 | 15 | 7.3 | 4.7 | 45 | 3500 | 10000 | 53.3 | 84 | 312 | O=C1Nc2ccccc2[C@]12C[C@H]2c1ccc2c(/C=C/c3ccc(CN4CCOCC4)cc3)n[nH]c2c1 | 50000 | AUC(0-inf) [12]: 478 ng·h/mL; bioavailability [13]: 31%; clearance (Canis familiaris): 33.3 mL/min/kg; half-life [14]: 192 min; AUC(0-inf) [15]: 515 ng·h/mL; AUC(0-inf) [16]: 250 ng·h/mL; bioavailability [17]: 9.7% |
| 29 | 21 | 15 | 50000 | Not Active | Not Active | 6.36 | 6.12 | < 6.00 | 5.00 | – | – | – | – | 3400 | 6800 | – | – | – | COc1ccc2c(c1)[C@]1(C[C@H]1c1ccc3c(/C=C/c4ccc(CN5C[C@@H](C)O[C@@H](C)C5)cc4)n[nH]c3c1)C(=O)N2C | > 30000 | pIC50 [18]: 8.24; half-life ([4]; microsomes): 10 min; half-life ([5]; microsomes): 18 min; half-life ([6]; microsomes): > 60 min; half-life ([7]; microsomes): > 60 min |
| 10 | 50 | 10 | 1000 | Not Active | Not Active | 6.36 | 6.05 | 4.96 | 6.35 | – | – | – | – | 3300 | 16000 | – | – | – | COc1ccc2c(c1)[C@]1(C[C@H]1c1ccc3c(/C=C/c4ccc([C@H](C)N5CCOCC5)cc4)n[nH]c3c1)C(=O)N2C | 9600 | pIC50 [18]: 8.82; half-life ([4]; microsomes): 7.2 min; half-life ([5]; microsomes): 10 min; half-life ([6]; microsomes): 6.8 min; half-life ([7]; microsomes): 53 min |

Reference: ChEMBL document CHEMBL3407349, “The discovery of Polo-like kinase 4 inhibitors: identification of (1R,2S).2-(3-((E).4-(((cis).2,6-dimethylmorpholino)methyl)styryl). 1H.indazol-6-yl)-5'-methoxyspiro[cyclopropane-1,3'-indolin]-2'-one (CFI-400945) as a potent, orally active antitumor agent” (J Med Chem, 2015)
